Reference: ChEMBL document CHEMBL1909046, “DrugMatrix in vitro pharmacology data”

Legend:
[1] = target: T1, Thromboxane-A synthase (Homo sapiens, UniProt P24557); experiment: biochemical; type: tissue-based, Platelet; settings: platelet;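 also: enzyme inhibition assay with PGH2 supplied as substrate; in other assays of this panel Not Active means under 50% inhibition at 10 µM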
T1 sequence (P24557 whole entry): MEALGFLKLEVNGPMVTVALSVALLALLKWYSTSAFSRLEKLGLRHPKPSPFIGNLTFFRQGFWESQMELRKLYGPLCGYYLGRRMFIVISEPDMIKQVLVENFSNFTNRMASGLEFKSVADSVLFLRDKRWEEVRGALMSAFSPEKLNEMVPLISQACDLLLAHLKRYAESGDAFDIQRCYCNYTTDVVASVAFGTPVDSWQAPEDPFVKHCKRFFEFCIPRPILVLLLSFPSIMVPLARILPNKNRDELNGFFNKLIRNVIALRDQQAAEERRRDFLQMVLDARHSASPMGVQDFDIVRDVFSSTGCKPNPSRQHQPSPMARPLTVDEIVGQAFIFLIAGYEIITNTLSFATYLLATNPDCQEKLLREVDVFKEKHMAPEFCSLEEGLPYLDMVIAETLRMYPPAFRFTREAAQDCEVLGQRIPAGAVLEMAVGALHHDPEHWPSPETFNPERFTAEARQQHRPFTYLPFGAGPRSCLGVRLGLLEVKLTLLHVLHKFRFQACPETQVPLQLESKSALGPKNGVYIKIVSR

[2] = target: T2, D(4) dopamine receptor (Homo sapiens, UniProt P21917); experiment: DRUGMATRIX: Dopamine D4.2 radioligand binding (ligand: [3H] Spiperone); type: cell membranes, CHO-K1, Membrane; settings: cho-k1; Not Active = under 50% inhibition at 10 µM
T2 sequence (P21917 whole entry): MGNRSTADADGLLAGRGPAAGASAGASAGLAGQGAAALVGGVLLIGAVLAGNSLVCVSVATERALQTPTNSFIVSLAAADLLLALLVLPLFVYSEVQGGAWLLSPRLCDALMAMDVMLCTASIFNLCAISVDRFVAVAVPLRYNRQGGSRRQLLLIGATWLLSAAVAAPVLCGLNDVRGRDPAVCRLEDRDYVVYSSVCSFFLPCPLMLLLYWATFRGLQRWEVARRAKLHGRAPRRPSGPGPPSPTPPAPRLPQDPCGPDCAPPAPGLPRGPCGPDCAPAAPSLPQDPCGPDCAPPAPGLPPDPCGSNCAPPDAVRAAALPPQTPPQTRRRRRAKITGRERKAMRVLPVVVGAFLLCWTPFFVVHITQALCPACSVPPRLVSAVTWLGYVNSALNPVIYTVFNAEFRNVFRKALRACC

[3] = DRUGMATRIX: Serotonin (5-Hydroxytryptamine) 5-HT3 radioligand binding (ligand: [3H] GR-65630); type: cell membranes, Membrane; settings: hek293; Not Active = under 50% inhibition at 10 µM
[4] = target: 5-hydroxytryptamine receptor 4 (Cavia porcellus, UniProt O70528); type: cell membranes, Dunkin-Hartley, Striatum, Membrane; also: in other assays of this panel Not Active means under 50% inhibition at 10 µM
[5] = target: T3, Cysteinyl leukotriene receptor 1 (Homo sapiens, UniProt Q9Y271); type: cell membranes, CHO-K1, Membrane; settings: cho-k1; also: in other assays of this panel Not Active means under 50% inhibition at 10 µM
T3 sequence (Q9Y271 whole entry): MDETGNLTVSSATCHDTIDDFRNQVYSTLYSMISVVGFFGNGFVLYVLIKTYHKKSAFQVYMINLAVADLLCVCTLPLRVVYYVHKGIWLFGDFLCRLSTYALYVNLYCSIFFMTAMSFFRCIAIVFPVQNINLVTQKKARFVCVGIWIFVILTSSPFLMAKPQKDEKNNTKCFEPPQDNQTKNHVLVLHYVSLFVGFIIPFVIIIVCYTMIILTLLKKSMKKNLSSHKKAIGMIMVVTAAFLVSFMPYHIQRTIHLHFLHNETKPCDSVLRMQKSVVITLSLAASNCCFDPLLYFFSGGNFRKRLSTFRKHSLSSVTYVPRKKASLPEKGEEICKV

[6] = DRUGMATRIX: Atrial Natriuretic Factor (ANF) radioligand binding (ligand: [125I] ANF (rat)); type: cell membranes, Cavia porcellus, Dunkin-Hartley, Adrenal gland, Membrane; settings: Not Active = under 50% inhibition at 10 µM

5-hydroxytryptamine receptor 4, sequence (O70528 whole entry): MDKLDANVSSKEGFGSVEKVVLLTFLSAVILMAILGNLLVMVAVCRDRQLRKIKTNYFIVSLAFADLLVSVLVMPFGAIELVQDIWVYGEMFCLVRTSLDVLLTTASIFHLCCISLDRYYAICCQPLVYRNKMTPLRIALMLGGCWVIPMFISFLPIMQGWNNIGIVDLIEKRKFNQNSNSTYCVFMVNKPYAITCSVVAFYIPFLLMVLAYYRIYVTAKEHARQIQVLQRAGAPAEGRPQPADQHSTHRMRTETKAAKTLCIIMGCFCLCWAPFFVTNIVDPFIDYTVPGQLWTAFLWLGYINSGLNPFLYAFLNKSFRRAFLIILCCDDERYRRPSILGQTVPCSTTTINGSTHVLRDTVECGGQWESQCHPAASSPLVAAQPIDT

CC1(C)[C@H](C(=O)O)N2C(=O)C[C@H]2S1(=O)=O [SULBACTAM]
Not Active: IC50 [1] | IC50 [2] | IC50 [3] | Ki [3] | IC50 [4] | IC50 [5] | IC50 [6] | Ki [6]
